Experimental data taken from patent US9326506B2, “Preparation method, agricultural composition and applications of natural brassinolide analogs” (CHENGDU NEWSUN CROPSCIENCE CO., LTD, priority 2012, dated 2016).

Tested on: rice
Experiment: Low temperature assay on rice seedlings
Assay type: in vivo
Method: According to a low temperature assay, we measured parameters including plant height, number of leaf, area of leaf, number of tiller, weight of root at low temperature to completely determine effects of the natural brassinolide analogues on the resistance to low temperature of a plant.
The natural brassinolide analogues, BR1, BR2, BR3, BR4, BR5 and BR6, used herein, were those prepared by the method of Example 1. Respectively the analogues were dissolved into 95% (V/V) ethanol solution, and then diluted with pure water to 1 mg/L, 0.1 mg/L, 0.01 mg/L, 0.001 mg/L and 0.0001 mg/L. In addition, pure water was used as a control.
After rice seeds were disinfected by using 5% sodium hypochlorite solution treatment, they were rinsed with distilled water until their pH>7, placed into a petri dish in a dark incubator, and cultured by using water at 30° C.±2° C. for 9 days. Then respectively the nine-day-old etiolated seedlings of rice were immersed in the above solutions containing different concentrations of the natural brassinolide analogues or pure water, and cultured at the temperature of 1° C., 2° C., 3° C., 4° C. and 5° C. for 24 hr. The parameters including plant height, area of leaf and weight of root after 3, 6, 9 and 12 days and number of leaf and number of tiller after 12 days were measured.

## CC(C)(O)CC[C@@H](O)[C@](C)(O)[C@H]1CC[C@@]2(O)[C@@H]3CC(=O)[C@@H]4C[C@@H](O)[C@@H](O)C[C@]4(C)[C@H]3CC[C@]12C [BR6]
0.01 mg/l, 3 °C, 9 days
  Height: 7.4 cm
  Weight of root: 2.9 g
0.01 mg/l, 3 °C, 12 days
  Area of leaf: 13.2 cm^2
  Height: 7.6 cm
  Number of leaf: 3
  Number of tiller: 2
  Weight of root: 2.9 g
0.01 mg/l, 4 °C, 3 days
  Area of leaf: 10.8 cm^2
  Height: 7.1 cm
  Weight of root: 2.5 g
0.01 mg/l, 4 °C, 6 days
  Area of leaf: 12.4 cm^2
  Height: 7.3 cm
  Weight of root: 2.6 g
0.01 mg/l, 4 °C, 9 days
  Area of leaf: 13.7 cm^2
  Height: 7.6 cm
  Weight of root: 2.9 g
0.01 mg/l, 4 °C, 12 days
  Area of leaf: 13.7 cm^2
  Height: 7.8 cm
  Number of leaf: 3
  Number of tiller: 2
  Weight of root: 3.0 g
0.01 mg/l, 5 °C, 3 days
  Area of leaf: 10.9 cm^2
  Height: 7.7 cm
  Weight of root: 2.8 g
0.01 mg/l, 5 °C, 6 days
  Area of leaf: 13.9 cm^2
  Height: 7.8 cm
  Weight of root: 3.0 g
0.01 mg/l, 5 °C, 9 days
  Area of leaf: 17.1 cm^2
  Height: 8.1 cm
  Weight of root: 3.4 g
0.01 mg/l, 5 °C, 12 days
  Area of leaf: 18 cm^2
  Height: 8.5 cm
  Number of leaf: 4
  Number of tiller: 3
  Weight of root: 3.9 g
0.1 mg/l, 1 °C, 3 days
  Area of leaf: 10.1 cm^2
  Height: 7.0 cm
  Weight of root: 2.8 g
0.1 mg/l, 1 °C, 6 days
  Area of leaf: 12 cm^2
  Height: 7.3 cm
  Weight of root: 3.0 g
0.1 mg/l, 1 °C, 9 days
  Area of leaf: 12.9 cm^2
  Height: 7.3 cm
  Weight of root: 3.4 g
0.1 mg/l, 1 °C, 12 days
  Area of leaf: 13.4 cm^2
  Height: 7.5 cm
  Number of leaf: 3
  Number of tiller: 3
  Weight of root: 3.7 g
0.1 mg/l, 2 °C, 3 days
  Area of leaf: 10.4 cm^2
  Height: 7.1 cm
  Weight of root: 2.9 g
0.1 mg/l, 2 °C, 6 days
  Area of leaf: 11.8 cm^2
  Height: 7.2 cm
  Weight of root: 3.0 g
0.1 mg/l, 2 °C, 9 days
  Area of leaf: 12.8 cm^2
  Height: 7.3 cm
  Weight of root: 3.1 g
0.1 mg/l, 2 °C, 12 days
  Area of leaf: 13 cm^2
  Height: 7.4 cm
  Number of leaf: 3
  Number of tiller: 3
  Weight of root: 3.2 g
0.1 mg/l, 3 °C, 3 days
  Area of leaf: 10.5 cm^2
  Height: 7.2 cm
  Weight of root: 2.5 g
0.1 mg/l, 3 °C, 6 days
  Area of leaf: 12 cm^2
  Height: 7.3 cm
  Weight of root: 2.6 g
0.1 mg/l, 3 °C, 9 days
  Area of leaf: 12.8 cm^2
  Height: 7.4 cm
  Weight of root: 2.8 g
0.1 mg/l, 3 °C, 12 days
  Area of leaf: 13.2 cm^2
  Height: 7.5 cm
  Number of leaf: 3
  Number of tiller: 2
  Weight of root: 2.9 g
0.1 mg/l, 4 °C, 3 days
  Area of leaf: 10.8 cm^2
  Height: 7.1 cm
  Weight of root: 2.5 g
0.1 mg/l, 4 °C, 6 days
  Area of leaf: 12.5 cm^2
  Height: 7.4 cm
  Weight of root: 2.7 g
0.1 mg/l, 4 °C, 9 days
  Area of leaf: 13.5 cm^2
  Height: 7.5 cm
  Weight of root: 2.9 g
0.1 mg/l, 4 °C, 12 days
  Area of leaf: 13.8 cm^2
  Height: 7.7 cm
  Number of leaf: 3
  Number of tiller: 2
  Weight of root: 3.1 g
0.1 mg/l, 5 °C, 3 days
  Area of leaf: 11.1 cm^2
  Height: 7.7 cm
  Weight of root: 2.9 g
0.1 mg/l, 5 °C, 6 days
  Area of leaf: 13.9 cm^2
  Height: 7.8 cm
  Weight of root: 3.2 g
0.1 mg/l, 5 °C, 9 days
  Area of leaf: 17.8 cm^2
  Height: 8.4 cm
  Weight of root: 3.5 g
0.1 mg/l, 5 °C, 12 days
  Area of leaf: 18.9 cm^2
  Height: 8.6 cm
  Number of leaf: 3
  Number of tiller: 2
  Weight of root: 4 g
1 mg/l, 1 °C, 3 days
  Area of leaf: 10 cm^2
  Height: 7.1 cm
  Weight of root: 2.8 g
1 mg/l, 1 °C, 6 days
  Area of leaf: 11.2 cm^2
  Height: 7.2 cm
  Weight of root: 3.1 g
1 mg/l, 1 °C, 9 days
  Area of leaf: 12.4 cm^2
  Height: 7.3 cm
  Weight of root: 3.4 g
1 mg/l, 1 °C, 12 days
  Area of leaf: 12.8 cm^2
  Height: 7.3 cm
  Number of leaf: 3
  Number of tiller: 3
  Weight of root: 3.9 g
1 mg/l, 2 °C, 3 days
  Area of leaf: 10.2 cm^2
  Height: 7.1 cm
  Weight of root: 2.8 g
1 mg/l, 2 °C, 6 days
  Area of leaf: 11.7 cm^2
  Height: 7.2 cm
  Weight of root: 3.0 g
1 mg/l, 2 °C, 9 days
  Area of leaf: 12.6 cm^2
  Height: 7.3 cm
  Weight of root: 3.2 g
1 mg/l, 2 °C, 12 days
  Area of leaf: 13.1 cm^2
  Height: 7.6 cm
  Number of leaf: 3
  Number of tiller: 3
  Weight of root: 3.9 g
1 mg/l, 3 °C, 3 days
  Area of leaf: 10.4 cm^2
  Height: 7.1 cm
  Weight of root: 2.5 g
1 mg/l, 3 °C, 6 days
  Area of leaf: 12.2 cm^2
  Height: 7.3 cm
  Weight of root: 2.6 g
1 mg/l, 3 °C, 9 days
  Area of leaf: 12.6 cm^2
  Height: 7.5 cm
  Weight of root: 2.9 g
1 mg/l, 3 °C, 12 days
  Area of leaf: 13.2 cm^2
  Height: 7.6 cm
  Number of leaf: 3
  Number of tiller: 2
  Weight of root: 2.9 g
1 mg/l, 4 °C, 3 days
  Area of leaf: 10.9 cm^2
  Height: 7.1 cm
  Weight of root: 2.5 g
1 mg/l, 4 °C, 6 days
  Area of leaf: 12 cm^2
  Height: 7.5 cm
  Weight of root: 2.6 g
1 mg/l, 4 °C, 9 days
  Area of leaf: 13.4 cm^2
  Height: 7.5 cm
  Weight of root: 3.0 g
1 mg/l, 4 °C, 12 days
  Area of leaf: 14 cm^2
  Height: 7.7 cm
  Number of leaf: 3
  Number of tiller: 2
  Weight of root: 3.2 g
1 mg/l, 5 °C, 3 days
  Area of leaf: 11.1 cm^2
  Height: 7.7 cm
  Weight of root: 2.9 g
1 mg/l, 5 °C, 6 days
  Area of leaf: 13.6 cm^2
  Height: 8.0 cm
  Weight of root: 3.6 g
1 mg/l, 5 °C, 9 days
  Area of leaf: 18.9 cm^2
  Height: 8.8 cm
  Weight of root: 3.7 g
1 mg/l, 5 °C, 12 days
  Area of leaf: 20 cm^2
  Height: 8.9 cm
  Number of leaf: 3
  Number of tiller: 2
  Weight of root: 4.5 g
In vivo
  Effects on resistance to low temperature compared among analogues: more than those of BR2, BR3 and BR4
